In test [1] the test system is Erythropoietin secretion, Hep-3B cells. The experiment in a line: Cellular assay: EPO secretion in Hep-3B cells. In kind it is cell-based. As to conditions: Homo sapiens, Hep3B, 100 μM compound, 24 hours, percent of EPO secretion relative to assay control compound 7-[(4-Chloro-phenyl)-(5-methyl-isoxazol-3-ylamino)-methyl]-quinolin-8-ol, read-out: Cellular % EPO Stimulation. The method, then:
Hep-3B cells (ATCC, Manassas, Va.) were plated in 96-well plates at 20,000 cells per well in 100 μl of DMEM containing 10% fetal bovine serum, 1% non-essential amino acids, 50 IU/mL of penicillin and 50 μg/mL of streptomycin (all cell culture reagents from Invitrogen, Carlsbad, Calif.). Twenty-four hours after plating, compounds were added and incubated for an additional 24 hours. All compounds were tested with final compound concentrations at 100 μM. Fifty microliters of the supernatant was then transferred to a human Hypoxia assay kit (Meso-Scale Discovery, Gaithersburg, Md.). Erythropoietin in the supernatant was detected according to the manufacturer's instructions as follows. EPO detection plates were blocked with 3% BSA in PBS overnight and 50 μl of the supernatant was incubated at room temperature in an orbital shaker for 2 h. Twenty-five microliters of 0.5 μg/ml anti-EPO detection antibody was added for 2 hours at room temperature in an orbital shaker. After 3 washes in PBS, 150 μl of 1× read buffer is added and the plate is then read on the MSD SECTOR instrument. Data was analyzed by determining the percent of EPO secretion in the presence of 100 μM compound relative to an assay control compound, 7-[(4-Chloro-phenyl)-(5-methyl-isoxazol-3-ylamino)-methyl]-quinolin-8-ol.

Another test concerns the target PHD2181-417 (Homo sapiens (Human), UniProt Q9GZT9). Briefly: PHD enzymatic assay ([14C]-succinic acid production). The test is classed as biochemical. As to conditions: purified PHD2181-417, HIF-1α peptide substrate, 30 min pre-incubation, average of results. The method, then:
Expression and Purification of PHD2181-417
The human PHD2 expression construct containing amino acids 181-417 of GenBank Accession ID NM_022051 was cloned into a pBAD vector (Invitrogen), incorporating both an N-terminal histidine tag and a Smt3-tag, both of which are cleaved by Ulp1. Protein production was achieved by expression in BL21 cells grown in Terrific Broth containing 100 μg/ml ampicillin. Cell cultures were inoculated at 37° C. and grown to an OD600 of 0.8. Cultures were induced with 0.1% arabinose and grown overnight at 20° C. with continuous shaking at 225 rpm. Cells were then harvested by centrifugation and stored at −80° C. Cell pellets were suspended in Buffer A (50 mM Tris-HCl pH 7.2, 100 mM NaCl, 100 mM L-arginine, 1 mM TCEP, 0.05% (w/v) NP-40, 50 mM imidazole) followed by the addition of lysozyme and benzonase. Cells were lysed by sonication and the lysate was cleared by centrifugation (15,000 rpm, 90 min, 4° C.). The protein was purified by nickel affinity chromatography using a HisTrap Crude FF column (GE Healthcare). Samples were eluted in Buffer A with a 50-200 mM imidazole gradient. Cleavage of the Smt tag with Ulp1 protease was achieved via overnight incubation with dialyzing against Buffer A. The PHD2181-417 sample was then passed over a second HisTrap Crude FF column (GE Healthcare) to remove uncleaved protein. The flow-through was then dialyzed into 50 mM MES pH 6.0, 1 mM TCEP, 5 mM NaCl for ion exchange chromatography on a HiTrap SP Cation Exchange column (GE Healthcare). The PHD2181-417 protein was eluted with a 0-0.2 M NaCl gradient. Fractions were pooled for further purification by size exclusion chromatography over a Superdex 75 Size Exclusion Column (GE Healthcare). Final protein was concentrated to 4 mg/ml and dialyzed in 10 mM PIPES pH 7.0, 100 mM NaCl, 0.5 mM TCEP.
(10 μM, California Peptide Research Inc., Napa, Calif.), and [5-^14C]-2-oxoglutaric acid (50 mCi/mmol, Moravek Chemicals, Brea, Calif.) in reaction buffer (40 mM Tris-HCl, pH 7.5, 0.4 mg/ml catalase, 0.5 mM DTT, 1 mM ascorbate) for 10 minutes. Compounds were pre-incubated for 30 min before starting the reaction (all test compounds were dissolved at 10 mM in 100% DMSO (w/v) and were tested with final compound concentrations at 100 μM in 1% DMSO (w/v)). The reaction was stopped by addition of 50 μl of 70 mM H3PO4 and 50 μl of 500 mM NaH2PO4, pH 3.2. Detection of [^14C]-succinic acid was achieved by separating from [5-^14C]-2-oxoglutaric acid by incubating the reaction mixture with 100 μl of 0.16 M DNP prepared in 30% perchloric acid. Next, 50 μl of unlabeled 20 mM 2-oxoglutaric acid/20 mM succinic acid, serving as carrier for the radioactivity, was added to the mixture, and was allowed to proceed for 30 minutes at room temperature. The reaction was then incubated with 50 μl of 1 M 2-oxoglutaric acid for 30 additional minutes at room temperature to precipitate the excess DNP. The reaction was then centrifuged at 2800×g for 10 minutes at room temperature to separate [^14C]-succinic acid in the supernatant from the precipitated [^14C]-dinitrophenylhydrazone. Fractions of the supernatant (400 μI) were counted using a beta counter (Beckman Coulter, Fullerton, Calif.). Inhibition of PHD2181-417 activity was measured as a decrease in succinic acid production. The IC50 values were estimated by fitting the data to a three-parameter logistic function using GraphPad Prism, version 4.02 (Graph Pad Software, San Diego, Calif.).

Sequence of PHD2181-417 (Q9GZT9 181-417): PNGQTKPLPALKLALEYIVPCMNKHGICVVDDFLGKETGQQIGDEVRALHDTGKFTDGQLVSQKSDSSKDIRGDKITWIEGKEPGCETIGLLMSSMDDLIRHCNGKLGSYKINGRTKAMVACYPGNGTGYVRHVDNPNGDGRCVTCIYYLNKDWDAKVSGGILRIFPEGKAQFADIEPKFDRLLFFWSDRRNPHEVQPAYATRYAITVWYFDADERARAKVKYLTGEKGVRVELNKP

For the compound `COCC(C)Nc1nc(-n2cc(C(=O)O)cn2)nc2cc(F)c(Oc3c(C)cccc3C)cc12` (racemic) [Example 9, (rac)-1-[6-(2,6-Dimethyl-phenoxy)-7-fluoro-4-(2-methoxy-1-methyl-ethylamino)-quinazolin-2-yl]-1H-pyrazole-4-carboxylic acid], the activation at 100 µM in test [1] came out at 86%. The IC50 at PHD2181-417 (read-out: Enzyme pIC50 (converted)) is 0.0794 µM.
In the case of `Cc1cccc(C)c1Oc1cc2c(N)nc(-n3cc(C(=O)O)cn3)nc2cc1F` [Example 1, 1-[4-Amino-6-(2,6-dimethyl-phenoxy)-7-fluoro-quinazolin-2-yl]-1H-pyrazole-4-carboxylic acid], in test [1], the activation at 100 µM turned out to be 51%.
Regarding `CNc1nc(-n2cc(C(=O)O)cn2)nc2cc(F)c(Oc3c(C)cccc3C)cc12` [Example 2, 1-[6-(2,6-Dimethyl-phenoxy)-7-fluoro-4-methylamino-quinazolin-2-yl]-1H-pyrazole-4-carboxylic acid], in test [1], the activation at 100 µM was 10%. Moreover, the “Enzyme pIC50” value at PHD2181-417 was 7.2.
With `Cc1cccc(C)c1Oc1cc2c(N(C)C)nc(-n3cc(C(=O)O)cn3)nc2cc1F` [Example 3, 1-[4-Dimethylamino-6-(2,6-dimethyl-phenoxy)-7-fluoro-quinazolin-2-yl]-1H-pyrazole-4-carboxylic acid], the activation at 100 µM in test [1] turned out to be 68%.
With `Cc1cccc(C)c1Oc1cc2c(N3CCCCC3)nc(-n3cc(C(=O)O)cn3)nc2cc1F` [Example 4, 1-[6-(2,6-Dimethyl-phenoxy)-7-fluoro-4-piperidin-1-yl-quinazolin-2-yl]-1H-pyrazole-4-carboxylic acid], the activation at 100 µM in test [1] was 17%. The “Enzyme pIC50” value at PHD2181-417 was 6.9.
On the same counts, the results for `Cc1cccc(C)c1Oc1cc2c(N3CCCC3)nc(-n3cc(C(=O)O)cn3)nc2cc1F` [Example 5, 1-[6-(2,6-Dimethyl-phenoxy)-7-fluoro-4-pyrrolidin-1-yl-quinazolin-2-yl]-1H-pyrazole-4-carboxylic acid] are 25% and 7.4.
On the same counts, the results for `Cc1cccc(C)c1Oc1cc2c(Nc3ccccc3)nc(-n3cc(C(=O)O)cn3)nc2cc1F` [Example 6, 1-[6-(2,6-Dimethyl-phenoxy)-7-fluoro-4-phenylamino-quinazolin-2-yl]-1H-pyrazole-4-carboxylic acid] are 22% and 7.4.
As to `Cc1cccc(C)c1Oc1cc2c(Nc3ccccc3Cl)nc(-n3cc(C(=O)O)cn3)nc2cc1F` [Example 7, 1-[4-(2-Chloro-phenylamino)-6-(2,6-dimethyl-phenoxy)-7-fluoro-quinazolin-2-yl]-1H-pyrazole-4-carboxylic acid], in test [1], the activation at 100 µM was found to be 13%.
With `Cc1cccc(C)c1Oc1cc2c(NCC3CC3)nc(-n3cc(C(=O)O)cn3)nc2cc1F` [Example 15, 1-((4-Cyclopropanemethylamino)-6-(2,6-dimethylphenoxy)-7-fluoroquinazolin-2-yl)-1H-pyrazole-4-carboxylic acid], the activation at 100 µM in test [1] turned out to be 64%.
On the same count and under the same terms, under `Cc1cccc(C)c1CNc1nc(-n2cc(C(=O)O)cn2)nc2ccc(C3CCCCC3)cc12` [Example 23, 1-[6-Cyclohexyl-4-(2,6-dimethyl-benzylamino)-quinazolin-2-yl]-1H-pyrazole-4-carboxylic acid] stands 7%.
In the case of `CCN(CC)c1nc(-n2cc(C(=O)O)cn2)nc2cc(Cl)c(OC3CCCCC3)cc12` [Example 138, 1-(7-chloro-6-(cyclohexyloxy)-4-(diethylamino)quinazolin-2-yl)-1H-pyrazole-4-carboxylic acid], the “Enzyme pIC50” value at PHD2181-417 is listed as 7.5.
Consider `O=C(O)c1cnn(-c2nc(N3CCCC3)c3cc(OC4CCCCC4)c(Cl)cc3n2)c1` [Example 139, 1-(7-chloro-6-(cyclohexyloxy)-4-(pyrrolidin-1-yl)quinazolin-2-yl)-1H-pyrazole-4-carboxylic acid], for which the “Enzyme pIC50” value at PHD2181-417 is recorded as 7.1.
Take `O=C(O)c1cnn(-c2nc(NC3CC3)c3cc(OC4CCCCC4)c(Cl)cc3n2)c1` [Example 141, 1-(7-chloro-6-(cyclohexyloxy)-4-(cyclopropylamino)quinazolin-2-yl)-1H-pyrazole-4-carboxylic acid]: on PHD2181-417, the “Enzyme pIC50” value was 7.0.
Regarding `CCN(CC)c1nc(-n2cc(C(=O)O)cn2)nc2ccc(OC3CCCCC3)cc12` [Example 174, 1-(6-(cyclohexyloxy)-4-(diethylamino)quinazolin-2-yl)-1H-pyrazole-4-carboxylic acid], the activation at 100 µM in test [1] came to 35%.
`O=C(O)c1cnn(-c2nc(N3CCCC3)c3cc(OC4CCCCC4)ccc3n2)c1` [Example 175, 1-(6-(cyclohexyloxy)-4-(pyrrolidin-1-yl)quinazolin-2-yl)-1H-pyrazole-4-carboxylic acid]: the activation at 100 µM in test [1] stood at 46%.
On to `O=C(O)c1cnn(-c2nc(N3CCOCC3)c3cc(Cc4ccccc4)ccc3n2)c1` [Example 178, 1-(6-benzyl-4-morpholinoquinazolin-2-yl)-1H-pyrazole-4-carboxylic acid], for which the “Enzyme pIC50” value at PHD2181-417 came to 6.5.
With `CN(C)c1nc(-n2cc(C(=O)O)cn2)nc2ccc(Cc3ccccc3)cc12` [Example 179, 1-(6-benzyl-4-(dimethylamino)quinazolin-2-yl)-1H-pyrazole-4-carboxylic acid], at PHD2181-417, the “Enzyme pIC50” value is on record as 7.1.
Same read-out and setting: then `CCN(CC)c1nc(-n2cc(C(=O)O)cn2)nc2ccc(Cc3ccccc3)cc12` [Example 180, 1-(6-benzyl-4-(diethylamino)quinazolin-2-yl)-1H-pyrazole-4-carboxylic acid], with 7.1; and `O=C(O)c1cnn(-c2nc(N3CCCC3)c3cc(Cc4ccccc4)ccc3n2)c1` [Example 181, 1-(6-benzyl-4-(pyrrolidin-1-yl)quinazolin-2-yl)-1H-pyrazole-4-carboxylic acid], with 7.1.
Still for that read-out and setting: under `O=C(O)c1cnn(-c2nc(NC3CC3)c3cc(Cc4ccccc4)ccc3n2)c1` [Example 182, 1-(6-benzyl-4-(cyclopropylamino)quinazolin-2-yl)-1H-pyrazole-4-carboxylic acid] stands 7.1; under `CCN(C)c1nc(-n2cc(C(=O)O)cn2)nc2ccc(Cc3ccccc3)cc12` [Example 183, 1-(6-benzyl-4-(ethyl(methyl)amino)quinazolin-2-yl)-1H-pyrazole-4-carboxylic acid], 7.2.

Values taken from patent publication US10246442B2, “4-Aminoquinazolin compounds as prolyl hydroxylase inhibitors” (JANSSEN PHARMACEUTICA NV, priority 2011, dated 2019).
